{"source": "paper PMC10897151", "about": "“Nature-inspired peptide of MtDef4 C-terminus tail enables protein delivery in mammalian cells” (Scientific Reports, 2024)", "key": {"HeLa cells [1]": {"test_system": "HeLa cells", "test": "Flow cytometry analysis of cellular uptake", "assay_type": "cell-based", "details": "free FITC 25 µM, 2 h, trypsin treated", "method": "To evaluate the capability of GMA4C to penetrate mammalian cells, we synthesized the peptide with a fluorescein isothiocyanate (FITC) fluorescent probe at its N-terminus (FITC-GMA4C). Subsequently, we incubated HeLa cells with varying concentrations of FITC-GMA4C for two hours. After thorough washing, we visualized the cells using confocal microscopy imaging. Remarkably, we observed the accumulation and intracellular localization of FITC-GMA4C within the cells, even at low micromolar concentrations (Figs. 3A,B, and S7A). The entry of FITC-GMA4C is depicted by green dots within the cells, indicating effective peptide transduction. […] To ensure that the detected fluorescence signal originated only from peptides internalized within the cells and not from peptides bound to the cell membrane, we washed the cells and subjected them to trypsin treatment at 37 °C. […]\nFigure 3 Characterization of GMA4C penetration into HeLa cells by confocal imaging and flow cytometry analysis. […] (B) Quantification of FITC-GMA4C fluorescence intensity. Bars show the mean green fluorescence intensity relative to non-treated cells and normalized to the number of cells. Values were measured using the Color Threshold tab in Fiji. […] (C) Quantification of FITC-GMA4C peptide uptake by cells. […] (D) Quantitative evaluation of flow cytometry signal intensity. Values were measured using FloJo flow cytometry software. […]"}, "HeLa cells [2]": {"test_system": "HeLa cells", "test": "Confocal microscopy imaging of cellular penetration", "assay_type": "cell-based", "method": "To this end, we explored the internalization kinetics of FITC-GMA4C into the cells. At the outset, we performed a dose–response investigation using a twofold dilution, identifying optimal conditions at 6uM for peptide visualization (Figs. 2 and 3). Subsequently, HeLa cells were cultured with 6 µM FITC-GMA4C and imaged at different time points.\nFigure 4 Time response of FITC-GMA4C uptake into HeLa cells. (A) Cells were cultured with 6 µM of FITC-GMA4C at 37 °C, followed by PBS washing and subsequent fixation with 4% PFA and post-fixation staining with DAPI. Images of cells were taken by confocal microscopy visualizing FITC-GMA4C (green) and DAPI (Blue). Scale bar: 100 µm. (B) Quantification of FITC-GMA4C fluorescence intensity. Bars show the mean green fluorescence intensity relative to non-treated cells and normalized to the number of cells. Values were measured using the Color Threshold tab in Fiji. […]\nGiven the remarkable rate and efficiency of the free peptide cellular penetration, we further investigated its capacity to enhance the delivery of large biomolecules into cells. For that purpose, we evaluated the cellular permeabilization of recombinant GFP, expressed and purified with an N- or C-terminus fusion of GMA4C: GFP, GMA4C-GFP and GFP-GMA4C, respectively (Fig. S1). […] Subsequently, we quantified the cellular uptake of the exogenous proteins using flow cytometry analysis. […]"}}, "note": "Peptide text beside a SMILES is read from it.", "data": [{"molecule": "fluorescein isothiocyanate [free-FITC]", "values": [{"measurement": "accumulation in the cell", "setting": "HeLa cells [1]", "result": "only slightly accumulated"}]}, {"molecule": "C[C@@H](O)[C@H](NC(=O)[C@H](CS)NC(=O)[C@H](Cc1ccccc1)NC(=O)[C@H](CS)NC(=O)[C@H](CCCNC(=N)N)NC(=O)[C@H](CCCNC(=N)N)NC(=O)[C@H](CCCNC(=N)N)NC(=O)[C@H](Cc1ccccc1)NC(=O)CNC(=O)[C@H](CCCNC(=N)N)NC(=O)[C@H](CS)NC(=O)[C@H](CCCNC(=N)N)NC(=O)CN)C(=O)N[C@H](C(=O)N[C@@H](Cc1c[nH]cn1)C(=O)N[C@@H](CS)C(=O)O)[C@@H](C)O", "note": "[GMA4C] (H-GRCRGFRRRCFCTTHC-OH; N-terminus and C-terminus assumed)", "values": [{"measurement": "time at which significant uptake is observed", "setting": "HeLa cells [2]", "result": "under 15 min"}, {"measurement": "time to reach uptake equilibrium", "setting": "HeLa cells [2]", "result": "≤ 30", "unit": "min"}]}]}
